Measurements taken from patent US20100297112A1, “COMBINATIONS COMPRISING DMXAA FOR THE TREATMENT OF CANCER” (Antisoma Research Limited, priority 2005, published 2010).
Where two headings read alike, the source gives them in different places.

Assays:
[1] = system: HT29 (colorectal) xenografts; settings: for Regression Duration: days tumour volume less than original treatment volume; for Tumour Growth Delay: treated versus control tumours to quadruple in volume (control 17 days); for Median VQT: tumour volume quadrupling time; for Response CR (Complete Response): undetectable tumour over two weeks; for Response PR (Partial Response): ≧50% reduction in tumour size sustained over two weeks
Description: (§1) Xenografts for human lung and colorectal cancers are set-up in groups of nude, athymic mice. The cell lines selected are HT29 (ATCC number HTB-38), a colorectal adenocarcinoma, and A549 (ATCC number CCL-185), a lung carcinoma.
(§2) For this study, DMXAA is given twice in each of Weeks 1 and 4 of the study.
(§3) Xenografts are measured two or three times per week and their absolute volume recorded; xenograft tumour volume relative to that recorded on Day 0 (V0) is then calculated. The time taken to reach a relative tumour volume of 3× V0 is used as a surrogate marker for survival.

[2] = system: A549 (lung carcinoma) xenografts; settings: for Regression Duration: Example 1, days tumour volume less than original treatment volume; for Tumour Growth Delay: Example 1, treated versus control tumours to quadruple in volume (control 25 days); for Median VQT: Example 1, tumour volume quadrupling time; for Response CR (Complete Response): Example 1, undetectable tumour over two weeks; for Response PR (Partial Response): Example 1, ≧50% reduction in tumour size sustained over two weeks
Description: as §1, §2, §3

[3] = system: A549 (lung carcinoma) xenografts; assay: A549 xenograft study with paclitaxel triple combination (Example 2); format: in vivo, mice; settings: for Drug deaths: Paclitaxel 5, Avastin 5, DMXAA 21 mg/kg by injection; for Regression Duration: days tumour volume less than original treatment volume; for Tumour Growth Delay: treated versus control tumours to quadruple in volume (control 25 days); for Median VQT: tumour volume quadrupling time; for Response CR (Complete Response): undetectable tumour over two weeks; for Response PD (Progressive Disease): ≧50% increase in tumour size; for Response PR (Partial Response): ≧50% reduction in tumour size sustained over two weeks
Text: The experimental set-up of this example with respect to the xenografts, mice and cell line is as described in Example 1 above.

human tumours = settings: phase I, monotherapy, cited from earlier work
[4] = cited from earlier work
[5] = diclofenac 100 mg/kg i.p., cited from earlier work

Compound	Regression Duration [1] [days]	Tumour Growth Delay [1] [days]	Median VQT [1] [days]	Response CR (Complete Response) [1]	Response PR (Partial Response) [1]	TTP (median time to disease progression) ([2]; Example 1) [days]	Regression Duration [2] [days]	Tumour Growth Delay [2] [days]	Median VQT [2] [days]	Response CR (Complete Response) [2]	Response PR (Partial Response) [2]	Response SD (Stable Disease) [3]	TTP (median time to disease progression) [3] [days]	Drug deaths [3]	Regression Duration [3] [days]	Tumour Growth Delay [3] [days]	Median VQT [3] [days]	Response CR (Complete Response) [3]	Response PD (Progressive Disease) [3]	Response PR (Partial Response) [3]	further results
Cc1ccc2c(=O)c3cccc(CC(=O)O)c3oc2c1C [DMXAA, 5,6-dimethylxanthenone-4-acetic acid]	10	29	46	0	1	14	0	32	57	0	0	0	7	4/11	0	>21	>46	0	7	0	Response SD (Stable Disease) [1]: 0; TTP (median time to disease progression) [1]: 16 days; Response PD (Progressive Disease) ([1]; ≧50% increase in tumour size): 5; Response SD (Stable Disease) ([2]; Example 1): 0; Response PD (Progressive Disease) ([2]; Example 1, ≧50% increase in tumour size): 11; tumour blood flow (dynamic MRI) (human tumours; well-tolerated doses): significant reduction in tumour blood flow; tumour responses (human tumours): very few tumour responses
Avastin ™: humanised monoclonal antibody that binds to vascular endothelial growth factor (VEGF)	0	17	34	0	0	8	0	42	67	0	1		7	0/11	0	>17	>42	0		0	
CC(=O)O[C@H]1C(=O)[C@@]2(C)[C@H]([C@H](OC(=O)c3ccccc3)[C@]3(O)C[C@H](OC(=O)[C@H](O)[C@@H](NC(=O)c4ccccc4)c4ccccc4)C(C)=C1C3(C)C)[C@]1(OC(C)=O)CO[C@@H]1C[C@@H]2O [Paclitaxel, paclitaxel]												0	7	0/11	0	3	28	0	11	0	
O=C1CCC(N2C(=O)c3ccccc3C2=O)C(=O)N1 (centres unmarked) [Thalidomide, thalidomide]																					increase of the AUC of DMXAA ([4]; in plasma, liver and spleen): 1.8 times; increase of the AUC of DMXAA ([4]; in tumour): three
O=C(O)Cc1ccccc1Nc1c(Cl)cccc1Cl [diclofenac]																					increase in the plasma DMXAA AUC ([5]; female mice): 31%; increase in T1/2 of DMXAA ([5]; male and female mice, P<0.05): threefold; increase in the plasma DMXAA AUC ([5]; male mice): 24%
